Source: PubChem BioAssay (NCI)
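Assay format: 96-well plates, 48-hour exposure. GI50: concentration for 50% inhibition of growth. TGI marks complete inhibition of growth.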

Key:
Experiment in all cases: growth of human tumour cells (NCI), 48 h; in the data active = GI50 below about 0.43 µM; inactive = the rest
DU-145 prostate = test system: DU-145 prostate
MOLT-4 leukemia = test system: MOLT-4 leukemia
HCT-116 colon = test system: HCT-116 colon
HOP-62 NSCLC = test system: HOP-62 NSCLC
NCI-H460 lung = test system: NCI-H460 lung
UO-31 renal = test system: UO-31 renal
TK-10 renal = test system: TK-10 renal
A549 NSCLC = test system: A549 NSCLC
T-47D breast = test system: T-47D breast
HOP-92 NSCLC = test system: HOP-92 NSCLC
HCC-2998 colon = test system: HCC-2998 colon
M14 melanoma = test system: M14 melanoma
SK-MEL-5 melanoma = test system: SK-MEL-5 melanoma
RXF 393 renal = test system: RXF 393 renal
SR leukemia = test system: SR leukemia
OVCAR-4 ovarian = test system: OVCAR-4 ovarian
HT29 colon = test system: HT29 colon
KM12 colon = test system: KM12 colon
SNB-75 CNS = test system: SNB-75 CNS
SF-539 CNS = test system: SF-539 CNS
SF-295 CNS = test system: SF-295 CNS
NCI-H522 lung = test system: NCI-H522 lung
SF-268 CNS = test system: SF-268 CNS
SK-MEL-2 melanoma = test system: SK-MEL-2 melanoma
OVCAR-8 ovarian = test system: OVCAR-8 ovarian
EKVX NSCLC = test system: EKVX NSCLC
IGROV1 ovarian = test system: IGROV1 ovarian
MCF7 breast = test system: MCF7 breast
CCRF-CEM leukemia = test system: CCRF-CEM leukemia
SK-MEL-28 melanoma = test system: SK-MEL-28 melanoma
PC-3 prostate = test system: PC-3 prostate
COLO 205 colon = test system: COLO 205 colon
U251 CNS = test system: U251 CNS
SW-620 colon = test system: SW-620 colon
RPMI-8226 leukemia = test system: RPMI-8226 leukemia
786-0 renal = test system: 786-0 renal
LOX IMVI melanoma = test system: LOX IMVI melanoma
HL-60(TB) leukemia = test system: HL-60(TB) leukemia
OVCAR-5 ovarian = test system: OVCAR-5 ovarian
CAKI-1 renal = test system: CAKI-1 renal
ACHN renal = test system: ACHN renal
BT-549 breast = test system: BT-549 breast
HS 578T breast = test system: HS 578T breast
A498 renal = test system: A498 renal
SNB-19 CNS = test system: SNB-19 CNS
NCI-H226 lung = test system: NCI-H226 lung
MDA-MB-231 breast = test system: MDA-MB-231 breast
UACC-62 melanoma = test system: UACC-62 melanoma
OVCAR-3 ovarian = test system: OVCAR-3 ovarian
HCT-15 colon = test system: HCT-15 colon
K-562 leukemia = test system: K-562 leukemia
SK-OV-3 ovarian = test system: SK-OV-3 ovarian
MDA-MB-435 = test system: MDA-MB-435
SN12C renal = test system: SN12C renal
NCI-H23 lung = test system: NCI-H23 lung

COc1cc(OC)c(/C=C/C(=O)c2c(N)cc(OC)cc2OC)c(OC)c1
901 nM: TGI (NCI-H522 lung)
active: GI50 (HCT-116 colon) 384 nM | GI50 (NCI-H460 lung) 347 nM | GI50 (M14 melanoma) 349 nM | GI50 (SK-MEL-5 melanoma) 332 nM | GI50 (SR leukemia) 242 nM | GI50 (KM12 colon) 303 nM | GI50 (SNB-75 CNS) 338 nM | GI50 (SF-539 CNS) 365 nM | GI50 (SF-295 CNS) 397 nM | GI50 (NCI-H522 lung) 234 nM | GI50 (MCF7 breast) 395 nM | GI50 (SW-620 colon) 326 nM | GI50 (HL-60(TB) leukemia) 300 nM | GI50 (CAKI-1 renal) 380 nM | GI50 (UACC-62 melanoma) 379 nM | GI50 (OVCAR-3 ovarian) 280 nM | GI50 (HCT-15 colon) 369 nM | GI50 (K-562 leukemia) 305 nM | GI50 (MDA-MB-435) 77.6 nM
> 25200 nM: TGI (SF-539 CNS)
> 75000 nM: TGI (786-0 renal)
514 nM: TGI (MDA-MB-435)
> 54100 nM: TGI (HCC-2998 colon)
> 51200 nM: TGI (NCI-H460 lung)
inactive: GI50 (DU-145 prostate) 608 nM | GI50 (MOLT-4 leukemia) 1020 nM | GI50 (HOP-62 NSCLC) 724 nM | GI50 (UO-31 renal) 1360 nM | GI50 (TK-10 renal) 6640 nM | GI50 (A549 NSCLC) 733 nM | GI50 (T-47D breast) 478 nM | GI50 (HOP-92 NSCLC) 17600 nM | GI50 (HCC-2998 colon) 1250 nM | GI50 (RXF 393 renal) 623 nM | GI50 (OVCAR-4 ovarian) 13600 nM | GI50 (HT29 colon) 3300 nM | GI50 (SF-268 CNS) 609 nM | GI50 (SK-MEL-2 melanoma) 528 nM | GI50 (OVCAR-8 ovarian) 712 nM | GI50 (EKVX NSCLC) 2250 nM | GI50 (IGROV1 ovarian) 797 nM | GI50 (CCRF-CEM leukemia) 1260 nM | GI50 (SK-MEL-28 melanoma) 2180 nM | GI50 (PC-3 prostate) 1770 nM | GI50 (COLO 205 colon) 2940 nM | GI50 (U251 CNS) 504 nM | GI50 (RPMI-8226 leukemia) 815 nM | GI50 (786-0 renal) 1490 nM | GI50 (LOX IMVI melanoma) 537 nM | GI50 (OVCAR-5 ovarian) 2510 nM | GI50 (ACHN renal) 722 nM | GI50 (BT-549 breast) 31700 nM | GI50 (HS 578T breast) 2420 nM | GI50 (A498 renal) 463 nM | GI50 (SNB-19 CNS) 654 nM | GI50 (NCI-H226 lung) 11200 nM | GI50 (MDA-MB-231 breast) 1350 nM | GI50 (SK-OV-3 ovarian) 767 nM | GI50 (SN12C renal) 719 nM | GI50 (NCI-H23 lung) 826 nM
1100 nM: TGI (OVCAR-3 ovarian)
14600 nM: TGI (HT29 colon)
4700 nM: TGI (RXF 393 renal)
> 94800 nM: TGI (HOP-92 NSCLC)
47900 nM: TGI (KM12 colon)
> 82000 nM: TGI (HS 578T breast)
> 45100 nM: TGI (COLO 205 colon)
> 100000 nM: TGI (DU-145 prostate) | TGI (MOLT-4 leukemia) | TGI (HCT-116 colon) | TGI (HOP-62 NSCLC) | TGI (UO-31 renal) | TGI (TK-10 renal) | TGI (A549 NSCLC) | TGI (T-47D breast) | TGI (M14 melanoma) | TGI (SK-MEL-5 melanoma) | TGI (SR leukemia) | TGI (OVCAR-4 ovarian) | TGI (SF-268 CNS) | TGI (SK-MEL-2 melanoma) | TGI (OVCAR-8 ovarian) | TGI (EKVX NSCLC) | TGI (IGROV1 ovarian) | TGI (MCF7 breast) | TGI (CCRF-CEM leukemia) | TGI (SK-MEL-28 melanoma) | TGI (PC-3 prostate) | TGI (U251 CNS) | TGI (SW-620 colon) | TGI (RPMI-8226 leukemia) | TGI (LOX IMVI melanoma) | TGI (HL-60(TB) leukemia) | TGI (OVCAR-5 ovarian) | TGI (CAKI-1 renal) | TGI (ACHN renal) | TGI (BT-549 breast) | TGI (SNB-19 CNS) | TGI (NCI-H226 lung) | TGI (MDA-MB-231 breast) | TGI (UACC-62 melanoma) | TGI (HCT-15 colon) | TGI (K-562 leukemia) | TGI (SK-OV-3 ovarian) | TGI (SN12C renal) | TGI (NCI-H23 lung)
